Source: patent publication US12616753B2, “HSP70 inhibitors and methods of using same” (THE WISTAR INSTITUTE, priority 2020, dated 2026)

How the values were obtained:
MC38 cells [1] = test: Membrane associated calreticulin analysis by flow cytometry; assay type: cell-based, mouse; details: 24 hours
Protocol: FIG. 6D: MC38 cells were treated with 5 μM AP-4-139B for 24 hours and subjected to flow cytometry, using Alexa488-tagged calreticulin antibody. *** p<0.001, n=4 biological replicates performed in duplicate. FIG. 6E: MC38 cells were treated with increasing concentrations of AP-4-139B, G-TPP, 17-AAG or Metformin for 3 hours and then assayed for extracellular ATP release. Three independent cultures were assayed for each treatment, and DMSO-treated cells were used as internal controls. Error bars represent standard deviation (SD).
Flow cytometry was used to detect calreticulin localization after exposure to Doxorubicin (positive control) or AP-4-139B. MC38 cells were plated at a density of 3×10^5 cells per well in 6-well plates. The following day, cells were treated with 1 μM of doxorubicin, 15 μM of AP-4-139B (MC38), or 5 μM of AP-4-139B (CT26). After 24 hours, cells were collected and stained with anti-CRT antibody (ab196158) (Abcam) diluted in a solution of 1% FBS in PBS for 30 minutes on ice in the dark. Cells were then washed with PBS and stained with DAPI (1 μg/mL) for 5 minutes prior to analysis. Samples were analyzed using a FACSCelesta (Becton Dickinson) flow cytometer. […] Fluorescent intensity of DAPI negative cells was measured and at least 10,000 events in the analysis gate were obtained.

MC38 cells [2] = test: In vivo metastasis assay (tail vein injection, C57Bl/6 mice); parameters: species or system mouse; details: 10 mg/kg every 48 hours, 3 weeks
Protocol: FIG. 24A: MC38 cells were subjected to invasion assays using BioCoat Matrigel transwells in the presence of the indicated concentrations of AP-4-139B. 24 hours later, cells were fixed and stained with Crystal Violet. Shown are representative images taken from 8 random fields of view per well. Scale bar=100 μm. FIG. 24B: Quantification of FIG. 24A *** p<0.001. FIG. 24C: Schematic representation of the metastasis assay. 4×10^5 MC38 cells were injected into the tail vein of 8-10 week old male C57Bl/6 mice. Mice were treated with i.p. injection of 10 mg/kg AP-4-139B every 48 hours. After 3 weeks, the lungs of mice were formalin fixed and H&E stained, and assessed for the presence of metastatic nodules. […] FIG. 24E: Quantification of FIG. 24D. n=5 mice per group. * p<0.05.
For in vivo metastasis assays, 8-10 week old male C57Bl/6 mice were injected with 4×10^5 MC38 cells. […] At the end of the study, mice were euthanized, lungs were harvested and fixed in formalin for analysis of lung tumor nodules by H&E. For anti-tumor vaccination studies, MC38 cells were treated with 10 μM AP-4-139B for 48 h, resulting in approximately 20% cell death (as assessed by Trypan Blue staining). […] Ten days later, mice were challenged on the right flank with 5×10^5 live MC38 cells, and tumor growth and incidence were monitored 3 times per week. […]

[3] = test system: MRPS14, NDUFA6, EGFR, AKT, mutant p53; test: Western blot of HSP70 client proteins in human tumor cell lines; assay type: cell-based
Protocol: Proteins were identified using False Discovery Rate (FDR) values less than 10% and p values less than 0.05. FIG. 3C: Three different melanoma cell lines (WM983B, WM4265, and 1205Lu) were treated with the indicated concentrations of AP-4-139B for 24 hours. Cell lysates were subjected to Western blot analysis, and immunoblotted for NDUFA6, MRPS14, and GAPDH (loading control). FIGS. 3D-3E: HT-29 (FIG. 3D) and LS411N (FIG. 3E) CRC cell lines were treated with the indicated concentrations of PET-16 or AP-4-139B for 48 hours. Cell lysates were subjected to Western blot analysis, and immunoblotted for EGFR, MRPS14, AKT, Cleaved Lamin A (CLA), Cleaved Caspase 3 (CC3), HSP70, HSP90 and GAPDH (loading control). FIG. 3F: HT-29 cells were treated with the indicated concentration of AP-4-139B, Gamitrinib (G-TPP), or VY-3-277 (negative control) for 48 hours. Cell lysates were subjected to Western blot analysis, and immunoblotted for HSP90, AKT, p53, and MRPS14.
Cell lysates were subjected to Western blot analysis, and immunoblotted for MRPS14, NDUFA6, BAK, COXIV, and GAPDH (loading control).
Antibodies used were purchased from: p53 (Ab-6) (DO-1, Millipore Sigma), p53 (1C12) (2524S), Cleaved Caspase 3 (9661S), Cleaved Lamin A (2035S), HSP90 (4877S), EGFR (4267S), HMGB1 (6893S), HSP70 (4873S), AKT (9272S), and GAPDH (2218S) (Cell Signaling, Danvers, MA, USA), MRPS14 (ab151118) (Abcam, Cambridge, MA, USA), NDUFA6 (GTX65550) (GeneTex, Irvine, CA, USA), BAK (H-211, sc-7873; Santa Cruz Biotechnology, Inc., Dallas, TX, USA), and HSP70 (C92F3A-5) (Enzo Life Sciences, Farmingdale, NY, USA). 17-AAG (Item No. 11039) and Metformin (Item No. 13118) were purchased from Cayman Chemical (Ann Arbor, MI, USA). Gamitrinib (G-TPP, HY-102007A) was purchased from MedChemExpress (Monmouth Junction, NJ, USA). All HSP70 inhibitors used were generated and confirmed by NMR. PLX-4720 was purchased from Chemietek (Catalog No. CT-P4720; Indianapolis, IN, USA). For in vitro studies, AP-4-139B was dissolved in DMSO. […]

c1ccc(-c2cn3nc(CCCCCC[P+](c4ccccc4)(c4ccccc4)c4ccccc4)sc3n2)cc1 [AP-4-139B, Triphenyl(6-(6-phenylimidazo[2,1-b][1,3,4]thiadiazol-2-yl)hexyl)phosphonium bromide]
calreticulin mobilization to the plasma membrane (MC38 cells [1]): calreticulin mobilization to the plasma membrane
number of tumor nodules in the lung (MC38 cells [2]): markedly decreased number of tumor nodules in the lung
level of HSP70/HSP90 client proteins EGFR, AKT, mutant p53 ([3]; HT-29 and LS411N, 48 hours): decreased
level of BAK and CoxIV and other mitochondrial proteins ([3]; colorectal cancer cell lines, IC50, 24 hours): unaffected
level of MRPS14 and NDUFA6 ([3]; several tumor cell lines): significantly decreased level of MRPS14 and NDUFA6
